Measured values published in paper PMC6559721 (Biochemistry, 2017).

Biological target: BthII1283 (Burkholderia thailandensis, UniProt Q2T5S0)

SMILES: Cn1c(=O)[nH]c2nncnc2c1=O [1-DMT]
- HPLC and HRMS of methylation product: Reumycin (1-DMT) is converted to a single product with an identical retention time
